# Assay results taken from PMC9975698, “Hyperoside alleviates toxicity of β-amyloid via endoplasmic reticulum-mitochondrial calcium signal transduction cascade in APP/PS1 double transgenic Alzheimer's disease mice” (Redox Biology, 2023).
# What was measured:
# [1] = test system: HT22 cells; experiment: LIVE/DEAD cells analysis (calcein AM / PI); assay type: cell-based; conditions: aggregated Aβ-treated HT22, HYP co-treatment 24 h
# Procedure: According to the manufacturer's instructions, cell death was detected by Calcein AM Cell Viability Assay Kit (Beyotime, Shanghai, CHINA). 5 × 10^4 HT22 cells per well were seeded in 24-well plates, and HT22 was treated with HYP (20–80 μM) or PBS for 24 h. After overnight incubation, treated cells were stained with Calcein/Propidium Iodide (PI) dye for 20 min. Cells images were then visualized and captured by using Olympus IX71 fluorescence microscope with FITC and TRITC filters consecutively. Green and red fluorescence images were merged and analyzed with cellSens Standard 1.8.1 software. The percentage of cell death was quantified by dividing the number of dead cells (red fluorescence) by the total number of cells.
# [2] = test system: Aβ oligomers, Aβ fibrils, Aβ (1–16); experiment: Dot blot of Aβ forms in HT22 cells; assay type: cell-based
# Procedure: 4 μL of prepared cell or animal sample protein solutions were dotted for adsorption onto methanol-pre-activated PVDF membranes and then blocked with 5% non-fat dry milk in Tris-buffered saline and Tween 20 for 1 h. The samples were incubated overnight at 4 °C with anti-amyloid fibril primary antibody [mOC87] (Abcam, MA, USA), anti-amyloid oligomer A11 (Invitrogen, CA, USA) or purified anti-β-amyloid (1–16) antibody (clone 6E10) (Biolegend, CA, USA) (1:1000), followed by HRP-conjugated secondary antibody. Protein bands were detected using Super Signal Sensitive ECL Western Blotting Detection Reagent (Beyotime, Beijing, China) and observed using a gel imaging device (Amersham Imager 800, GE, Tokyo, Japan).
# [3] = test system: APP/PS1 mice; experiment: HE staining of hippocampus; assay type: in vivo; conditions: hippocampus CA1, CA3, DG, nasal HYP
# Procedure: All animal care and experimental procedures were performed in accordance with the “Institutional Animal Care and User Committee Guidelines” of the Macau University of Science and Technology. APP/PSEN1 (APP/PS1) mice (N000175) were purchased from the Nanjing Institute of Biomedical Sciences, Nanjing University, China, weighing 25 ± 5 g. The animals were housed in a temperature-controlled room with a 12 h light/dark cycle and given ad libitum food and water. Male mice were randomly divided into the following 6 experimental groups. (a) wild-type group (n = 6), (b) APP/PS1 group (n = 6), (c) HYP (20 mg/kg group) (n = 7), (d) HYP (40 mg/kg) group (n = 8), (e) HYP (80 mg/kg) group (n = 8) and (f) memantine (MEM) (10 mg/kg) positive control group (n = 8). HYP was dissolved in the solvent containing 10% DMSO, 40% PEG300 and 5% Tween-80 in PBS, and administrated via nasal injection for every 3 days with a volume of 0.5 μL/g of body weight for 8 consecutive weeks. Pathological assessment on the cornuammonis region 1 (CA1), cornuammonis region 3 (CA3) and dentate gyrus region (DG) regions of the mouse hippocampus was done by HE staining. Brain sections were dehydrated with 70%, 80% and 90% alcohol respectively. […]
# [4] = test system: APP/PS1 mice; experiment: RT-PCR validation of calcium-related genes in mice; assay type: in vivo; conditions: HYP group compared to APP/PS1 group
# Procedure: To investigate the molecular mechanism of HYP, initial data (36,668 raw reads) obtained from the RNA sequencing were performed. […] In GO classification, the unigenes were annotated in three major categories (Fig. 8B). […] For the biological process category, most of the unigenes were matched to immune and signaling processes. For the cellular component category, most of the unigenes were assigned to cell and cell part. For the molecular function category, binding activity accounted for the largest proportion. […] Gene set enrichment analysis (GSEA) has been extensively applied to identify underlying pathways. In Fig. 8D, GSEA analysis of calcium channels was performed in conjunction with the previous AD hypothesis. Next, the relative expression levels of the hub genes in the APP and HYP-treated mice groups were examined by RT-PCR analysis.
# [5] = test system: APP/PS1 mice; experiment: Western blot of APP/GFAP/APP-β/BACE1 in cortex and hippocampus lysates; assay type: in vivo
# Procedure: After HYP treatment, the cells were lysed with RIPA. Protein concentrations were determined by Bio-Rad protein assay (Bio-Rad Laboratories, CA, USA). After electrophoretic separation, the gels were blotted and stained with primary antibodies. Binding of antibodies was visualized with peroxidase-coupled secondary antibodies using ECL Western Blotting detection reagents (Invitrogen, Scotland, UK). Band intensities were quantified using ImageJ software. Data were obtained from three independent experiments. All animal care and experimental procedures were performed in accordance with the “Institutional Animal Care and User Committee Guidelines” of the Macau University of Science and Technology. APP/PSEN1 (APP/PS1) mice (N000175) were purchased from the Nanjing Institute of Biomedical Sciences, Nanjing University, China, weighing 25 ± 5 g. The animals were housed in a temperature-controlled room with a 12 h light/dark cycle and given ad libitum food and water. Male mice were randomly divided into the following 6 experimental groups. (a) wild-type group (n = 6), (b) APP/PS1 group (n = 6), (c) HYP (20 mg/kg group) (n = 7), (d) HYP (40 mg/kg) group (n = 8), (e) HYP (80 mg/kg) group (n = 8) and (f) memantine (MEM) (10 mg/kg) positive control group (n = 8). […]
# [6] = Survival, body weight and organ index during the in vivo experiment; design: species or system mice; conditions: HYP 20/40/80 mg/kg nasal, every 3 days, 8 weeks
# Procedure: All animal care and experimental procedures were performed in accordance with the “Institutional Animal Care and User Committee Guidelines” of the Macau University of Science and Technology. APP/PSEN1 (APP/PS1) mice (N000175) were purchased from the Nanjing Institute of Biomedical Sciences, Nanjing University, China, weighing 25 ± 5 g. The animals were housed in a temperature-controlled room with a 12 h light/dark cycle and given ad libitum food and water. Male mice were randomly divided into the following 6 experimental groups. (a) wild-type group (n = 6), (b) APP/PS1 group (n = 6), (c) HYP (20 mg/kg group) (n = 7), (d) HYP (40 mg/kg) group (n = 8), (e) HYP (80 mg/kg) group (n = 8) and (f) memantine (MEM) (10 mg/kg) positive control group (n = 8). HYP was dissolved in the solvent containing 10% DMSO, 40% PEG300 and 5% Tween-80 in PBS, and administrated via nasal injection for every 3 days with a volume of 0.5 μL/g of body weight for 8 consecutive weeks.
smiles,measurement,setting,value
"O=c1c(O[C@@H]2O[C@H](CO)[C@H](O)[C@H](O)[C@H]2O)c(-c2ccc(O)c(O)c2)oc2cc(O)cc(O)c12 [HYP, Quercetin-3-O-β-D-galactopyranoside]",cell viability by calcein AM / PI staining,[1],increase of cell viability
same,level of different form of Aβ,[2]; HT22 cells incubated with exogenous Aβ for 24 h,lowered the level of different form of Aβ
same,"endogenous level of Aβ oligomers, Aβ fibrils and total Aβ (1–16)",[2]; HT22 cells without exogenous Aβ,"lowered the endogenous level of Aβ Oligomers (A11), Aβ Fibrils (mOC87) and total Aβ (1–16) (6E10)"
same,neuronal cell morphology (HE staining),[3],neuronal cell morphological changes were minimal
same,mRNA expression levels of calcium-related genes,[4],"mRNA expression levels of Cav2.3, Cav1.3, NCLX and TRPV4 were decreased"
same,level of BACE1 and APP-β proteins,[5],reduced the level of APP hydrolysis pathway-associated proteins such as BACE1 and APP-β
same,"survival, body weight and organ index",[6],all mice survived without significant changes in body weight
